The values that follow come from article PMC3895407 (Journal of medicinal chemistry, 2013).

One series deals with WEEV replicon. In kind it is cell-based, western equine encephalitis virus.
Series [1] deals with cell viability (cellular reduction of MTT).
Series [2] concerns Fort Morgan virus (FMV). In kind it is cell-based.
The subject of series [3] is Fort Morgan virus (FMV). The conditions noted are these: 25 µM.
Series [4] can be described thus: in vitro. The conditions noted are these: PAMPA, pH 7.4. For orientation: In PAMPA a lipid-coated filter parts donor from acceptor wells.
Series [5] in a line: in vitro.
The conditions of series [6]: Table 3; BBB lipid mixture, pH 7.4.
The conditions of series [7]: relative to lead compound 3.
Series [8] relates to western equine encephalitis virus (WEEV). The note with it: 25 µM.
For series [9] the test system is unchanged. The conditions noted are these: cited from earlier work.

Marks after values point to notes of the source that are not given here.

Consider “1-(1-(4-Chlorobenzyl)-1H-indole-2-carbonyl)-N-(2-methyl-2-(pyridin-4-yl)propyl)piperidine-4-carboxamide [27l]”, for which the IC50 in the series with WEEV replicon (read-out: IC50 (inhibition of luciferase expression in WEEV replicon assay)) is 19.3 ± 21 µM. In [1], the CC50 came to 43.6 µM. Turning to `CC(NC(=O)C1CCN(C(=O)c2cc3ccccc3n2Cc2ccc(Cl)cc2)CC1)c1ccncc1` (stereo not drawn) [27a, 1-(1-(4-Chlorobenzyl)-1H-indole-2-carbonyl)-N-(1-(pyridin-4-yl)ethyl)piperidine-4-carboxamide], the “Fold improvement of activity in WEEV replicon assay” value in the series with WEEV replicon is “about 3 fold”. In addition, the “Reduction of viral titers compared with 3” value (from here on “Reduction of viral titers”) in the series on Fort Morgan virus (FMV) [2] is “approximately ten-fold more than 3”. Moreover, the “FMV Viability (% uninfected control)” value in the series with Fort Morgan virus (FMV) [3] came to 68.2 ± 2.4 % uninfected control. In addition, the Papp in “in vitro [4]” is 102 ×10⁻⁶ cm/s. `C[C@@H](NC(=O)C1CCN(C(=O)c2cc3ccccc3n2Cc2ccc(Cl)cc2)CC1)c1ccncc1` [27b, (R)-1-(1-(4-Chlorobenzyl)-1H-indole-2-carbonyl)-N-(1-(pyridin-4-yl)ethyl)piperidine-4-carboxamide] had a Papp in the series “in vitro [4]” of 95.5 ×10⁻⁶ cm/s.

Turning to `CN1CCC(CNC(=O)C2CCN(C(=O)c3cc4ccccc4n3Cc3ccc(Cl)cc3)CC2)CC1` [27d, 1-(1-(4-Chlorobenzyl)-1H-indole-2-carbonyl)-N-((1-methylpiperidin-4-yl)methyl)piperidine-4-carboxamide], the CC50 in “in vitro [5]” is above 50 µM. The same measure, in the same setting: with `Cn1ccc(CNC(=O)C2CCN(C(=O)c3cc4ccccc4n3Cc3ccc(Cl)cc3)CC2)n1` [27e, 1-(1-(4-Chlorobenzyl)-1H-indole-2-carbonyl)-N-((1-methyl-1H-pyrazol-3-yl)methyl)piperidine-4-carboxamide] the figure was above 100 µM; with `Cn1cnc(CNC(=O)C2CCN(C(=O)c3cc4ccccc4n3Cc3ccc(Cl)cc3)CC2)c1` [27f, 1-(1-(4-Chlorobenzyl)-1H-indole-2-carbonyl)-N-((1-methyl-1H-imidazol-4-yl)methyl)piperidine-4-carboxamide], above 50 µM. As for `O=C(NCCc1ccncc1)C1CCN(C(=O)c2cc3ccccc3n2Cc2ccc(Cl)cc2)CC1` [27g, 1-(1-(4-Chlorobenzyl)-1H-indole-2-carbonyl)-N-(2-(pyridin-4-yl)ethyl)piperidine-4-carboxamide], the “Fold increase in potency in WEEV replicon assay” value in the series on WEEV replicon turned out to be 10 fold. The “Reduction of viral titers” value in the series on Fort Morgan virus (FMV) [2] is given as “approximately ten-fold more than 3”. Also, the “BBB-PAMPA (log Peff)” value in series [6] is listed as -4.18 ± 0.06 cm/s. Also, the “FMV Viability (% uninfected control)” value in the series with Fort Morgan virus (FMV) [3] is on record as 71.9 ± 1.9 % uninfected control. Also, the Papp in the series “in vitro [4]” is 66.1 ×10⁻⁶ cm/s. `O=C(NCCCc1ccncc1)C1CCN(C(=O)c2cc3ccccc3n2Cc2ccc(Cl)cc2)CC1` [27j, 1-(1-(4-Chlorobenzyl)-1H-indole-2-carbonyl)-N-(3-(pyridin-4-yl)propyl)piperidine-4-carboxamide]: the “Fold decrease in potency in WEEV replicon assay” value with WEEV replicon is recorded as 5 fold. Also, the Papp in the series “in vitro [4]” was 77.6 ×10⁻⁶ cm/s.

For `CN(CCc1ccncc1)C(=O)C1CCN(C(=O)c2cc3ccccc3n2Cc2ccc(Cl)cc2)CC1` [27m, 1-(1-(4-Chlorobenzyl)-1H-indole-2-carbonyl)-N-methyl-N-(2-(pyridin-4-yl)ethyl)piperidine-4-carboxamide], the “Fold diminished potency in WEEV replicon assay” value in the series with WEEV replicon is 3 fold. The Papp in the series “in vitro [4]” was 61.7 ×10⁻⁶ cm/s. In the series “in vitro [4]”, `O=C(NCCn1ccnc1)C1CCN(C(=O)c2cc3ccccc3n2Cc2ccc(Cl)cc2)CC1` [27o, N-(2-(1H-Imidazol-1-yl)ethyl)-1-(1-(4-chlorobenzyl)-1H-indole-2-carbonyl)piperidine-4-carboxamide] had a Papp of 1.74 ×10⁻⁶ cm/s. Turning to `COc1cccc(CCNC(=O)C2CCN(C(=O)c3cc4ccccc4n3Cc3ccc(Cl)cc3)CC2)c1` [27p, 1-(1-(4-Chlorobenzyl)-1H-indole-2-carbonyl)-N-(3-methoxyphenethyl)piperidine-4-carboxamide], the CC50 in “in vitro [5]” is above 100 µM. As to `CN(C)C(=O)C1CCN(C(=O)c2cc3ccccc3n2Cc2ccc(Cl)cc2)CC1` [27v, 1-(1-(4-Chlorobenzyl)-1H-indole-2-carbonyl)-N,N-dimethylpiperidine-4-carboxamide], the CC50 in the series “in vitro [5]” was above 100 µM. The compound also showed a Papp in the series “in vitro [4]” of 64.6 ×10⁻⁶ cm/s.

In “in vitro [5]”, `O=C(c1cc2ccccc2n1Cc1ccc(Cl)cc1)N1CCC(C(=O)N2CCOCC2)CC1` [27x, (1-(4-Chlorobenzyl)-1H-indol-2-yl)(4-(morpholine-4-carbonyl)piperidin-1-yl)methanone] showed a CC50 above 100 µM.

In the case of `CN(Cc1ccccc1)C(=O)C1CCN(C(=O)c2cc3ccccc3n2Cc2ccc([N+](=O)[O-])cc2)CC1` [28b, N-Benzyl-N-methyl-1-(1-(4-nitrobenzyl)-1H-indole-2-carbonyl)piperidine-4-carboxamide], the CC50 in the series “in vitro [5]” is above 100 µM. Consider `CN(Cc1ccccc1)C(=O)C1CCN(C(=O)c2cc3ccccc3n2Cc2ccc(C#N)cc2)CC1` [28c, N-Benzyl-1-(1-(4-cyanobenzyl)-1H-indole-2-carbonyl)-N-methylpiperidine-4-carboxamide], for which the CC50 in the series “in vitro [5]” was above 100 µM. For the same compound, in the series “in vitro [4]”, the Papp is 53.7 ×10⁻⁶ cm/s. Compound `CC(=O)n1c(C(=O)N2CCC(C(=O)N(C)Cc3ccccc3)CC2)cc2ccccc21` [28e, 1-(1-Acetyl-1H-indole-2-carbonyl)-N-benzyl-N-methylpiperidine-4-carboxamide] came in with a CC50 in “in vitro [5]” above 50 µM. The same compound showed a Papp in the series “in vitro [4]” of 9.77 ×10⁻⁶ cm/s. The compound `COCCn1c(C(=O)N2CCC(C(=O)N(C)Cc3ccccc3)CC2)cc2ccccc21` [28f, N-Benzyl-1-(1-(2-methoxyethyl)-1H-indole-2-carbonyl)-N-methylpiperidine-4-carboxamide] displayed a CC50 in the series “in vitro [5]” above 50 µM. Besides, the Papp in the series “in vitro [4]” was 40.7 ×10⁻⁶ cm/s. For `O=C(NCCc1ccncc1)C1CCN(C(=O)c2cccn2Cc2ccc(Cl)cc2)CC1` [29a, 1-(1-(4-Chlorobenzyl)-1H-pyrrole-2-carbonyl)-N-(2-(pyridin-4-yl)ethyl)piperidine-4-carboxamide], in the series on Fort Morgan virus (FMV) [3], the “FMV Viability (% uninfected control)” value is 63.0 ± 5.9 % uninfected control. The CC50 in “in vitro [5]” is above 100 µM. The compound further showed a Papp in the series “in vitro [4]” of 9.77 ×10⁻⁶ cm/s. For the compound `O=C(NCCc1ccncc1)C1CCN(C(=O)c2nccn2Cc2ccc(Cl)cc2)CC1` [29b, 1-(1-(4-Chlorobenzyl)-1H-imidazole-2-carbonyl)-N-(2-(pyridin-4-yl)ethyl)piperidine-4-carboxamide], the CC50 in the series “in vitro [5]” was above 50 µM. Further, the Papp in “in vitro [4]” was 8.71 ×10⁻⁶ cm/s. `O=C(NCCc1ccncc1)C1CCN(C(=O)c2nc3ccccc3n2Cc2ccc(Cl)cc2)CC1` [29c, 1-(1-(4-Chlorobenzyl)-1H-benzo[d]imidazole-2-carbonyl)-N-(2-(pyridin-4-yl)ethyl)piperidine-4-carboxamide]: the “Fold increase in half-life in mouse liver microsomes” value in series [7] is 20-35 fold. Also, in “in vitro [4]”, the Papp is 31.6 ×10⁻⁶ cm/s. In turn, `O=C(NCCc1ccncc1)C1CCN(C(=O)NCCc2ccc(Cl)cc2)CC1` [29d, N1-(4-Chlorophenethyl)-N4-(2-(pyridin-4-yl)ethyl)piperidine-1,4-dicarboxamide] yielded a CC50 in the series “in vitro [5]” above 100 µM. For the same compound, in “in vitro [4]”, the Papp is 14.1 ×10⁻⁶ cm/s. `Cn1c(C(=O)N2CCC(C(=O)NCCc3ccncc3)CC2)cc2ccccc21` [29e, 1-(1-Methyl-1H-indole-2-carbonyl)-N-(2-(pyridin-4-yl)ethyl)piperidine-4-carboxamide] had a CC50 in “in vitro [5]” above 50 µM. As for `O=C(NCCc1ccncc1)C1CCN(C(=O)c2cc3ccccc3n2Cc2ccccc2)CC1` [29f, 1-(1-Benzyl-1H-indole-2-carbonyl)-N-(2-(pyridin-4-yl)ethyl)piperidine-4-carboxamide], the “Fold increase in half-life in mouse liver microsomes” value in [7] was 20-35 fold.

Regarding `O=C(NCCc1ccncc1)C1CCN(C(=O)c2cc3ccc(F)cc3n2Cc2ccc(Cl)cc2)CC1` [29h, 1-(1-(4-Chlorobenzyl)-6-fluoro-1H-indole-2-carbonyl)-N-(2-(pyridin-4-yl)ethyl)piperidine-4-carboxamide], the “Reduction of viral titers” value in the series on Fort Morgan virus (FMV) [2] is given as “approximately ten-fold more than 3”. Turning to `O=C(NCCc1ccncc1)C1CCN(C(=O)c2cc3cc(F)ccc3n2Cc2ccc(Cl)cc2)CC1` [29i, 1-(1-(4-Chlorobenzyl)-5-fluoro-1H-indole-2-carbonyl)-N-(2-(pyridin-4-yl)ethyl)piperidine-4-carboxamide], the Papp in the series “in vitro [4]” is 77.6 ×10⁻⁶ cm/s. Turning to `O=C(NCCc1ccncc1)C1CCN(C(=O)c2cc3ccncc3n2Cc2ccc(Cl)cc2)CC1` [29j, 1-(1-(4-Chlorobenzyl)-1H-pyrrolo[2,3-c]pyridine-2-carbonyl)-N-(2-(pyridin-4-yl)ethyl)piperidine-4-carboxamide], the Papp in “in vitro [4]” was 3.02 ×10⁻⁶ cm/s.

As to `O=C(NCCc1ccncc1)C1CCN(C(=O)c2cc(F)cn2Cc2ccc(Cl)cc2)CC1` [29k, 1-(1-(4-Chlorobenzyl)-4-fluoro-1H-pyrrole-2-carbonyl)-N-(2-(pyridin-4-yl)ethyl)piperidine-4-carboxamide], the Papp in “in vitro [4]” was 12.6 ×10⁻⁶ cm/s. Compared with the last compound, the Papp is about 4.2-fold higher. On to `NC(=O)c1ncn([C@@H]2O[C@H](CO)[C@@H](O)[C@H]2O)n1` [Ribavirin], for which, in [8], the “WEEV Viability (% uninfected control)” value is 35.3 ± 1.0 % uninfected control. With `C[C@@H](NC(=O)C1CCN(C(=O)c2cc3ccccc3n2Cc2ccc(Cl)cc2)CC1)c1ccccc1` [compound 3], the “FMV Viability (% uninfected control)” value with Fort Morgan virus (FMV) [3] is 47.4 ± 8.0 % uninfected control. Moreover, in [9], the “WEEV Titer” value was 8.8 ± 1.0* x10^6 pfu/mL. Besides, the CC50 in “in vitro [5]” was above 100 µM. The compound further gave a Papp in “in vitro [4]” of 0.302 ×10⁻⁶ cm/s. For `O=C(NCc1ccncc1)C1CCN(C(=O)c2cc3ccccc3n2Cc2ccc(Cl)cc2)CC1` [compound 4], the CC50 in “in vitro [5]” is above 100 µM. In “in vitro [4]”, this compound had a Papp of 69.2 ×10⁻⁶ cm/s. For `O=C(NCc1cccnc1)C1CCN(C(=O)c2cc3ccccc3n2Cc2ccc(Cl)cc2)CC1` [compound 5], in the series with WEEV replicon, the “Fold loss in activity in WEEV replicon assay” value worked out at 2 fold.

As usually defined, the IC50 is the concentration that gives 50% inhibition. By Papp is commonly meant a coefficient for how fast a substance crosses the barrier. A low value points to poor permeation.
